Results reported in patent US8278313B2, “Macrocyclic spiro pyrimidine derivatives” (Abbott Laboratories, priority 2008, dated 2012).

Legend:
histamine H4 receptor [1] = molecular target: T1, histamine H4 receptor (Homo sapiens, UniProt Q9H3N8); experiment: In vitro histamine H4 potency in FLIPR (Ca2+ flux, Fluo-4) in HEK-293 cells coexpressing Gαqi5; type: cell-based; conditions: Kb values for antagonists and inverse agonists, EC50 values for partial agonists; HEK-293 cells with Gαqi5, Fluo-4
T1 construct: expressed in transfected cells
T1 sequence (Q9H3N8 whole entry, species assumed): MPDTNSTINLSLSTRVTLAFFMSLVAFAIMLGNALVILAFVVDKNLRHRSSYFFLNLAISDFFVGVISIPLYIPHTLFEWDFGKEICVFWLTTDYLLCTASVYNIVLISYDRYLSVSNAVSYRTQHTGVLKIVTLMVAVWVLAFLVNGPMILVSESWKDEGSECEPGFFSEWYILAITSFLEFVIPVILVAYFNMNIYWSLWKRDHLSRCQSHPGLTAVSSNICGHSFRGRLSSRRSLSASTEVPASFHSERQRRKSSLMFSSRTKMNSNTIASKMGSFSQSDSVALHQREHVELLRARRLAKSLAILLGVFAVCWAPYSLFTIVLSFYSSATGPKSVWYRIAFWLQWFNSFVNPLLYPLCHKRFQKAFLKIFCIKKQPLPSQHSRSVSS
Text: There are many methods available to show the effectiveness of compounds as histamine H4 receptor ligands. Histamine H4 receptors from mammalian species have been cloned. Methods to clone, express, and assess the potency and functional activity of such cloned genes are well known to those skilled in the art of molecular biology. […] Before testing, cells are loaded with a Ca^+2 sensitive fluorescent dye, in this case Fluo-4. In the case of partial agonist or agonist ligands, addition of compound to the cells leads to the increase in intracellular Ca^+2, which is detected by FLIPR (Fluorescence Imaging Plate Reader; Molecular Devices, Sunnyvale, Calif.) technology. […] The fluorescence intensities measured before addition of the test compound are subtracted from the fluorescence intensities at later time points. Peak response values determined at each concentration of ligand are expressed as a percentage of the response obtained with the full agonist histamine. Concentration versus response data are analyzed to obtain compound potency as Kb values for antagonists and inverse agonists and as EC50 values for partial agonists.

histamine H4 receptor [2] = molecular target: T1, histamine H4 receptor; experiment: [3H]-histamine competition binding assay, membranes of HEK-293 cells transiently transfected with histamine H4 receptor; conditions: Ki by Cheng-Prusoff equation; HEK-293 membranes, 25° C., 1 hour, pH 7.4; read-out: Potency (nM), displacement of 3H-histamine
Description: In this assay, membranes were prepared from HEK-293 cells transiently transfected with the pCINeo expression vector harboring the histamine H4 receptor by homogenization of the cells on ice in TE buffer (50 mM Tris-HCl buffer, pH 7.4, containing 5 mM EDTA), 1 mM benzamidine, 2 μg/ml aprotinin, […] leupeptin, and 1 μg/ml pepstatin. The homogenate was centrifuged at 40,000 g for 20 minutes at 4° C. This step was repeated, and the resulting pellet was resuspended in TE buffer. Aliquots were frozen at −70° C. until needed. On the day of assay, membranes were thawed and diluted with TE buffer. Competition radioligand binding assays were performed with increasing concentrations of test compound in the presence of [^3H]-histamine incubated at 25° C. for 1 hour in a total volume of 0.5 mL of 50 mM Tris, 5 mM EDTA, pH 7.4. All binding reactions were terminated by filtration under vacuum onto polyethylenimine (0.3%) presoaked Unifilters (PerkinElmer Life Sciences) or Whatman GF/B filters (Whatman, Clifton, N.J.), followed by three brief washes with 4 ml of ice-cold TE buffer. Bound radiolabel was determined by liquid scintillation counting. For all of the radioligand competition binding assays, IC50 values and Hill slopes were determined by Hill transformation of the data, and Ki values were determined by the Cheng-Prusoff equation.

| Compound | Potency (nM), in vitro histamine H4 potency in FLIPR (histamine H4 receptor [1]) | Ki (histamine H4 receptor [2]) |
| --- | --- | --- |
| CN[C@@H]1CCN(c2nc(N)nc3c2CCCC32CCCC2)C1 [Example 1, (R)-4′-(3-(methylamino)pyrrolidin-1-yl)-6′,7′-dihydro-5′H-spiro[cyclopentane-1,8′-quinazolin]-2′-amine] | 2.9 nM | 2.6 nM |
| Nc1nc(N2CCNCC2)c2c(n1)C1(CCCC1)CCC2 [Example 2, 4′-(piperazin-1-yl)-6′,7′-dihydro-5′H-spiro[cyclopentane-1,8′-quinazolin]-2′-amine] | 2.8 nM | 1.1 nM |
| CNC1CN(c2nc(N)nc3c2CCCC32CCCC2)C1 [Example 3, 4′-(3-(methylamino)azetidin-1-yl)-6′,7′-dihydro-5′H-spiro[cyclopentane-1,8′-quinazolin]-2′-amine] | 4.6 nM | 1.4 nM |
| Nc1nc(N2CC[C@@H](N)C2)c2c(n1)C1(CCCC1)CCC2 [Example 4, (R)-4′-(3-aminopyrrolidin-1-yl)-6′,7′-dihydro-5′H-spiro[cyclopentane-1,8′-quinazolin]-2′-amine] | 2.7 nM | 4.6 nM |
| Nc1nc(N2CC[C@H](N)C2)c2c(n1)C1(CCCC1)CCC2 [Example 5, (S)-4′-(3-aminopyrrolidin-1-yl)-6′,7′-dihydro-5′H-spiro[cyclopentane-1,8′-quinazolin]-2′-amine] | 53 nM |  |
| Nc1nc(N2CC[C@@H]3CNC[C@@H]32)c2c(n1)C1(CCCC1)CCC2 [Example 6, 4′-((3aR,6aR)-hexahydropyrrolo[3,4-b]pyrrol-1(2H)-yl)-6′,7′-dihydro-5′H-spiro[cyclopentane-1,8′-quinazolin]-2′-amine] | 1097 nM |  |
| Nc1nc(N2CC[C@H]3CNC[C@H]32)c2c(n1)C1(CCCC1)CCC2 [Example 7, 4′-((3aS,6aS)-hexahydropyrrolo[3,4-b]pyrrol-1(2H)-yl)-6′,7′-dihydro-5′H-spiro[cyclopentane-1,8′-quinazolin]-2′-amine] | 1027 nM |  |
| Nc1nc(N2CCCNCC2)c2c(n1)C1(CCCC1)CCC2 [Example 8, 4′-(1,4-diazepan-1-yl)-6′,7′-dihydro-5′H-spiro[cyclopentane-1,8′-quinazolin]-2′-amine] | 9.8 nM | 2.8 nM |
| Nc1nc(N2C[C@H]3CCCN[C@H]3C2)c2c(n1)C1(CCCC1)CCC2 [Example 9, 4′-((4aR,7aR)-tetrahydro-1H-pyrrolo[3,4-b]pyridin-6(2H,7H,7aH)-yl)-6′,7′-dihydro-5′H-spiro[cyclopentane-1,8′-quinazolin]-2′-amine] | 8.5 nM | 3.4 nM |
| CN1CCC(Nc2nc(N)nc3c2CCCC32CCCC2)CC1 [Example 10, N4′-(1-methylpiperidin-4-yl)-6′,7′-dihydro-5′H-spiro[cyclopentane-1,8′-quinazoline]-2′,4′-diamine] | 22 nM |  |
| COC(=O)C1(N)CCN(c2nc(N)nc3c2CCCC32CCCC2)CC1 [Example 11, Methyl 4-amino-1-(2′-amino-6′,7′-dihydro-5′H-spiro[cyclopentane-1,8′-quinazoline]-4′-yl)piperidine-4-carboxylate] | 12624 nM |  |
| Nc1nc(N2CCC(N)(C(=O)O)CC2)c2c(n1)C1(CCCC1)CCC2 [Example 12, 4-amino-1-(2′-amino-6′,7′-dihydro-5′H-spiro[cyclopentane-1,8′-quinazoline]-4′-yl)piperidine-4-carboxylic Acid] | 21251 nM |  |
| Nc1nc(N2CC(N)C2)c2c(n1)C1(CCCC1)CCC2 [Example 13, 4′-(3-aminoazetidin-1-yl)-6′,7′-dihydro-5′H-spiro[cyclopentane-1,8′-quinazolin]-2′-amine] | 68851 nM |  |
| CN(C)CCOc1nc(N)nc2c1CCCC21CCCC1 [Example 14, 4′-(2-(dimethylamino)ethoxy)-6′,7′-dihydro-5′H-spiro[cyclopentane-1,8′-quinazolin]-2′-amine] | 7.8 nM |  |
| CN1CC[C@@H](Oc2nc(N)nc3c2CCCC32CCCC2)C1 [Example 15, (R)-4′-(1-methylpyrrolidin-3-yloxy)-6′,7′-dihydro-5′H-spiro[cyclopentane-1,8′-quinazolin]-2′-amine] | 20 nM |  |
| Nc1nc(N2CCNCC2)c2c(n1)C1(CCCCC1)CCCC2 [Example 16, 4-(piperazin-1-yl)-5,6,7,8-tetrahydrospiro[cyclohepta[d]pyrimidine-9,1′-cyclohexan]-2-amine] | 48 nM | 9.3 nM |
| Nc1nc(N2CC[C@@H](N)C2)c2c(n1)C1(CCCCC1)CCCC2 [Example 17, (R)-4-(3-aminopyrrolidin-1-yl)-5,6,7,8-tetrahydrospiro[cyclohepta[d]pyrimidine-9,1′-cyclohexan]-2-amine] | 47 nM | 18 nM |
| Nc1nc(N2C[C@H]3CCCN[C@H]3C2)c2c(n1)C1(CCCCC1)CCCC2 [Example 18, 4-((4aR,7aR)-tetrahydro-1H-pyrrolo[3,4-b]pyridin-6(2H,7H,7aH)-yl)-5,6,7,8-tetrahydrospiro[cyclohepta[d]pyrimidine-9,1′-cyclohexan]-2-amine] | 99 nM |  |
| Nc1nc(N2CCNCC2)c2c(n1)C1(CCCC2)Cc2ccccc2C1 [Example 19, 4-(piperazin-1-yl)-1′,3′,5,6,7,8-hexahydrospiro[cyclohepta[d]pyrimidine-9,2′-inden]-2-amine] | 26915 nM |  |
| Nc1nc(N2CC[C@@H](N)C2)c2c(n1)C1(CCCC2)Cc2ccccc2C1 [Example 20, (R)-4-(3-aminopyrrolidin-1-yl)-1′,3′,5,6,7,8-hexahydrospiro[cyclohepta[d]pyrimidine-9,2′-inden]-2-amine] | 499 nM |  |
